# Values of other authors in patent publication US20040229941A1, “Analeptic and antidepressant combinations” (Cephalon, Inc., priority 2003, published 2004).
# Details: at 6 weeks of antidepressant therapy
smiles,measurement,value
CNCCC(Oc1ccc(C(F)(F)F)cc1)c1ccccc1 (stereo not shown) [fluoxetine],response,about 50%
